In one test the test system is Ralstonia eutropha. It counts as cell-based. The settings on record: data base search.
For test [1], the system named is slime. The experiment in a line: Laboratory torque type slime formation testing apparatus, artificial white water (Example 1). It counts as cell-based. From the text:
A torque type slime formation testing apparatus was used, which is described in Japanese Patent Kokai Hei 9-75065 A. The testing apparatus is constructed from a stationary outer cylinder and a rotatable inner cylinder disposed concentrically with the outer cylinder leaving a free space therebetween for allowing flow of water therein while rotating the inner cylinder so as to permit to grow slime formed on the surface of the inner […]. To this testing apparatus, an artificial white water (containing 142 mg/liter of soluble starch and 11.6 mg/liter of ammonium sulfate and having a pH of 7.0) was supplied continuously at a temperature of 30° C. so as to maintain a residence time in the apparatus of 20 minutes, while adding thereto intermittently a slime control agent containing as the main component DBNPA (dibromonitrilopropionamide) three times a day each for a duration of 15 minutes at a contact concentration of 2.5 mg/liter. […] Each isolated strain was taken up on a platinum loop and was suspended in 0.4 ml of TE buffer solution (10 mM Tris-HCl, 1 mM EDTA, pH 8.0) retained allotted in a 1.5 ml microcentrifugal tube. Based on the above results, test experiment was carried out under the same experimental condition except that HPGHC was used as the slime control agent so as to maintain the concentration thereof in the system at 0.3 mg/liter. […] This HPGHC-treated slime collected at this occasion was tested by analysis of microbial biota thereof in the same manner as above, whereby Microbacterium sp. was not detected.

The test system of test [2] is total microbe cells / slime. The experiment in a line: Origin treatment of wet broke chest in paper manufacturing process, total cell count and slime deposition (Example 9). As to the method: (§1) Samples were collected at various locations in the paper manufacturing process courses and, for each of them, total microbe cell count was measured by microscope direct count method after staining with DAPI, whereupon 48 strains were isolated by agar plate culture to determine the proportion of existence of Deinococcus geothermalis among the 48 strains based on the base sequence of 16S rDNA. Based on the results of the search for slime conrol agent, the treatment scheme was revised to the operation in which a slime control agent containing HPGHC as the effective component is added as the origin treating agent to the wet broke chest three times a day each at a dose rate of 25 milligrams per liter of the retained liquor (chest capacity), while supplying the white water circulation system with a slime control agent containing DBNPA as the effective component in the conventional manner. At the occasion of the second shut down after the revision of the treatment scheme and at an occasion directly before it, samples were collected at various locations in the paper manufacturing process courses, for which total microbe cell count and the proportion of existence of Deinococcus geothermalis were determined in the same way as the former practice. It was found thereby that the total microbe counts were unchanged and within the range of ordinary fluctuation, but Deinococcus geothermalis became undetectable.

The subject of test [3] is Deinococcus geothermalis. The test can be described thus: Origin treatment of wet broke chest in paper manufacturing process, Deinococcus geothermalis among 48 isolated strains (Example 9). As to the method: as §1
The subject of test [4] is all the other isolated bacteria. The test can be described thus: Data base search / sterilizing experiment, other isolated strains of Example 1 slime. The class given is cell-based. The conditions noted are these: strains isolated from slime of Example 1.
Test [5] concerns Deinococcus geothermalis. The experiment in a line: Data base search and sterilizing experiment (Example 9). It counts as cell-based.
The subject of test [6] is Microbacterium sp. (microbe number 6354). The test can be described thus: Data base search for antimicrobial agent, confirmed by sterilizing experiment, dominant microbe of Example 1 slime. It counts as cell-based.
The subject of test [7] is Deinococcus geothermalis. The experiment in a line: Analysis of microbial biota of white water of the machine, factory D (Example 3). The settings on record: DBNPA treatment. From the text: In the paper manufacturing factory D, another machine of a type similar to that used in Example 2 operating under conditions similar to those in Example 2 is installed adjacent to the machine of Example 2. In this machine, no occurrence of pink-colored […] recognized even at the occasion at which the pink-colored slime occurred in the machine of Example 2. Therefore, procedures corresponding to those in Example 1 were proceeded, wherein each 36 strains were isolated using agar medium and analysis of the microbial biota was carried out. Since a large number of strains are to be tested, each 16S rDNA obtained from each strain was treated by digestion with three kinds of restriction enzymes (BstUI, RsaI and HhaI) isolatedly to effect TRFLP analysis, in order to group preliminarily into classes of microbes of same reaction pattern, whereupon identification was effected based on the base sequence as identification parameter. It was recognized thereby that the occupation proportion of Deinococcus geothermalis in the isolated 36 strains was calculated to be only 2.7% (one strain). Since the machine construction is similar, this machine would suffer from same trouble by occurrence of pink-colored slime after a prolonged operation. […]

Another test deals with Sphingomonas. The experiment in a line: Data base search and sterilizing experiment (Example 9). It counts as cell-based.
The test system of test [8] is Gram-negative bacterium near-related to Riemerella. Described as above. The class given is cell-based.
Another test concerns Acidovorax temperans. The description is as above. The class given is cell-based.
The test system of another test is Rhizobium sp. The description is as above. It counts as cell-based.
In another test the test system is slime in CP tube. The test can be described thus: Slime control treatment of clear white water pit / CP line, paper machine Y (Example 11). The settings on record: intermittent introduction into the clear white water pit twice a day. As to the method:
In a paper machine Y (a daily throughput of 410 tons, slightly coated paper, pH 7.5) of a paper manufacturing factory B, occurrence of light brown-colored defects having sizes of about 5 mm diameter was recognized frequently since 11th day from the start of operation, caused to result in cessation of operation. The defect portions were cut out from the paper and three cut out pieces (about 8.1 mg) were cut into 2 mm squares, which were placed in a 2 ml microcentrifugal tube made of plastic material. To this tube, 1 ml of a DNA-extracting buffer solution (100 mM Tris-Cl, 100 mM EDTA-Na, 100 mM Na2HPO4 and 1.5 M NaCl (pH 8.0)) was added, followed by standing still at room temperature for 30 minutes to cause the paper pieces to be impregnated sufficiently with the solution.
From the above analysis results, it was assumed that the defect was caused by introduction of the slime formed in CP tube into the papermaking process course upon detachment or the like. In the CP line, clear white water obtained by treating white water through a polydiscfilter was used, which had hitherto not been subjected to a slime control treatment. Therefore, treatment was now applied by intermittent introduction of a slime control agent containing as the main component 2,2-dibromo-3-nitrilopropionamide into the clear white water pit twice a day.

Test [9] relates to slime. The test can be described thus: Monitoring demonstrators (slime testers) at paper machine of factory D (Example 3). On the procedure: Since the machine construction is similar, this machine would suffer from same trouble by occurrence of pink-colored slime after a prolonged operation. Therefore, monitoring of machine by prior practice was proceeded more […] the same time, the analysis of the microbial biota of white water same as in the above test method was performed at a more frequent interval, namely, at an interval of 7-14 days (with increase in the number of isolated strains to 48). […] On the other hand, white water devoid of DBNPA content was reserved by storing in a storage reservoir the white water taken from its supply line during a time interval discrepant from the DBNPA injection period, to preserve a reagent-free white water for the test.

Test [10] deals with pink-colored bacterial slime / Deinococcus geothermalis. The experiment in a line: Slime control treatment at paper manufacturing factory D, white water circulation system (Example 2). The conditions noted are these: slime formed during long term slime control with DBNPA based agent.
Test [11] relates to microbe belonging to a genus Microbacterium (microbe number 2401). The experiment in a line: Data base search for antimicrobial agent, dominant microbe of yellow-colored slime (Example 4). The class given is cell-based.
Test [12] concerns Deinococcus geothermalis. The experiment in a line: Data base search and sterilizing experiment, Example 2. The class given is cell-based. The conditions noted are these: data base search, confirmed by sterilizing experiment.
The next test has as its system Chaetomium elatum. The test can be described thus: Data base search for antimicrobial agent, filamentous fungus (Example 6). The class given is cell-based.
Setting [13] is: after HPGHC origin treatment plus DBNPA.
The mark [14] stands for this setting: after HPGHC origin treatment plus DBNPA, Clear white water in clear white water pit.
Setting [15] is: after HPGHC origin treatment plus DBNPA, Dry broke chest.
Setting [16] is: after HPGHC origin treatment plus DBNPA, Wet broke chest.
The mark [17] stands for this setting: after HPGHC origin treatment plus DBNPA, White water in white water silo.
The mark [18] stands for this setting: second shut down after revision of the treatment scheme (HPGHC to wet broke chest plus DBNPA).
[19] abbreviates: DBNPA 2 mg/l or even lower, contact time 30 minutes.

Turning to `OCl` [sodium hypochlorite], the “ranking of effectiveness for registered Ralstonia eutropha” value with Ralstonia eutropha is reported as “most effective”.

`O=C(C(Cl)=NO)c1ccc(O)cc1` [HPGHC, 2-(p-hydroxyphenyl)glyoxylohydroximoyl chloride]: in the test with slime [1] (HPGHC 0.3 mg/liter), the “Microbacterium sp. in treated slime (analysis of microbial biota)” value is reported as “not detected”. In addition, the “amount of cling substance” value with slime [1] (HPGHC 0.3 mg/liter) is “remarkably decreased”. This compound displayed a slime thickness in the test with slime [1] (HPGHC maintained at 0.3 mg/liter in the system, same test period (12 days)) of 3 μm. Besides, the “amount of deposition of slime” value in test [2] (HPGHC 25 mg per liter to wet broke chest three times a day plus DBNPA to white water circulation system) is “reduced considerably”. Further, the “total microbe cell count in cling substance from the suction box” value in test [2] (setting [13]) is listed as 3.5×10^9 cells per one gram of dry substance. Moreover, the Total cell count is on record as 3.1 × 10^7 cells/ml in [2] (setting [14]), 6.0 × 10^7 cells/ml in [2] (setting [15]), 5.3 × 10^7 cells/ml in [2] (setting [16]) and 4.8 × 10^7 cells/ml in test [2] (setting [17]). In addition, the total microbe counts result in test [2] (setting [18]) is recorded as “unchanged”. In addition, in the test with Deinococcus geothermalis [3] (setting [13]), the “Deinococcus geothermalis in cling substance from the suction box” value is “no Deinococcus geothermalis detected”. In addition, the “Number of strains of Deinococcus geothermal is (number of colonies among 48 strains)” value with Deinococcus geothermalis [3] (setting [14]), in the test on Deinococcus geothermalis [3] (setting [15]), in the test with Deinococcus geothermalis [3] (setting [16]) and with Deinococcus geothermalis [3] (setting [17]) was 0 in each case. The “Deinococcus geothermalis in samples from process courses” value with Deinococcus geothermalis [3] (setting [18]) is given as “undetectable”. The “susceptibility of all other isolated bacterium strains” value in [4] was “susceptible”. Further, the “sterilization of Deinococcus geothermalis” value with Deinococcus geothermalis [5] (HPGHC system internal concentration 20 mg/l for 20 minutes, data base) is reported as “sterilized”. In test [6] (from data base for search for antimicrobial agent), the minimum effective concentration turned out to be 0.2 mg/L.

`N#CC(Br)(Br)C(N)=O` [DBNPA, 2,2-dibromo-3-nitrilopropionamide]: the “occupation proportion of Deinococcus geothermalis” value is reported as 12.5% with Deinococcus geothermalis [7] (fifth test cycle on the 47th day, 6 of 48 strains) and 2-4% in the test on Deinococcus geothermalis [7] (up to the fourth test cycles, 48 strains). The “living microbe cells extinct” value (in the test with Sphingomonas (setting [19]); in [8] (setting [19]); in the test with Acidovorax temperans (setting [19]); in the test with Rhizobium sp. (setting [19])) was 99% throughout. Further, the “susceptibility of Shingomonas” value with Sphingomonas (data base search) is “susceptible”. Besides, the “susceptibility of Gram-negative bacterium near-related to Riemerella” value in test [8] (data base search) is “susceptible”. The compound also came in with a slime layer thickness in the test with slime [1] (DBNPA 2.5 mg/liter contact concentration, three times a day for 15 minutes, 12 days, pH 7.0, 30° C.) of 119 μm. Further, in the test with Acidovorax temperans (data base search), the “susceptibility of Acidovorax temperans” value is recorded as “susceptible”. Further, the “susceptibility of Rhizobium Sp.” value in the test with Rhizobium sp. (data base search) is “susceptible”. Besides, the “occurrence of defect on paper” value with slime in CP tube is recorded as “removed”. Further, in the test on slime in CP tube, the “occurrence of slime formation in the CP tube” value was “decreased remarkably”. In [4], the “susceptibility of all other isolated bacterium strains” value is “susceptible”. The “sign of growth of slime in demonstrator” value in the test with slime [9] (fifth test cycle, 47th day, No. 3 demonstrator inorganic bromine compound, No. 1 and No. 2 demonstrators DBNPA) is “sign of growth of slime was recognized”. Moreover, the “deposited amount of slime in No. 2 demonstrator” value in the test with slime [9] (simulator supplied with DBNPA-containing agent, after the change of the machine agent) was “increased gradually”. Moreover, in the test on slime [9] (simulator supplied with DBNPA-containing agent, day after the change of the antimicrobial agent), the “occurrence of pink-colored slime in No. 2 demonstrator” value is “visually recognized on the 14th day”. Moreover, the “occupation proportion of Deinococcus geothermalis in the entire microbe population” value in [10] was 46%. Further, the “resistance of dominant microbe (microbe number 2401)” value in test [11] was “resistance”. The “resistance of Deinococcus geothermalis” value in the test with Deinococcus geothermalis [12] and with Deinococcus geothermalis [5] (data base search) was “resistant” in each case. For the same compound, the “sterilization of Deinococcus geothermalis” value with Deinococcus geothermalis [5] (DBNPA 30 mg/l for 30 minutes) was “completely not sterilized”. Also, the “susceptibility of Chaetomium elatum” value in the test with Chaetomium elatum is listed as “non-susceptible”. Besides, the “resistance of Microbacterium sp. to the agent” value in [6] (data base search, confirmed by sterilizing experiment) is “resistance”.

Take `O=C(CBr)OCC=CCOC(=O)CBr` [BBAB, 1,4-bis-(bromoacetoxy)-2-butene]: the “susceptibility of Chaetomium elatum” value in the test on Chaetomium elatum is reported as “non-susceptible”.

The values are drawn from patent US20040132095A1, “Method of selecting antimicrobial agent and method of using the same” (priority 2001, published 2004).
